Here are results for one compound from patent US20250113823A1, “Arthropod Control Compositions” (priority 2022, published 2025).

The structures appear in SMILES notation.

Common to all, as to type: in vivo
Test [1] deals with Aedes aegypti. As to the kind of experiment: Double (dual) chamber assay, spatial repellence. The conditions noted are these: after 30 min of injection. Here is the method:
FIG. 1: Percentage of mosquitoes Aedes aegypti escaping over time the chamber treated with a stimulus. The four stimuli were the solvent propan-1,2-diol (grey triangles and dotted line), N,N-diethyl-meta-toluamide (medium grey diamonds), 2,6-dimethoxy-4-methylphenol (light gray squares) and 1,2,3-trimethoxy-5-propylbenzene (black circles). Each stimulus was injected during 40 min thanks to a forced evaporation system in the treated chamber containing the mosquitoes, causing their movement toward the untreated refuge chamber. Each point represents the mean number of mosquitoes in the untreated chamber (n=57, 6, 4 and 4 respectively)±SD at 10 min intervals.
The goal of this assay was to reproduce at a smaller scale the validation test for spatial repellent as described in WHO (2013; ISBN 978 92 4 150502 4).
The assay consists of a transparent cage (1200×755×700 mm; ˜0.63 m^3) covered by white paper. This cage is divided in two chambers of equal dimensions by a plasticized paper wall with square opening (200×200 mm) situated in the middle of the wall. At the beginning of the experiment, about 40 two-weeks old female Aedes aegypti mosquitoes are placed in the right chambers. Once the mosquitoes are settled inside this chamber (>5 min), the door between the chambers is opened. Then the stimulus is introduced into the mosquito chamber through a L-shape Teflon tube (40 mm) placed in the middle of the right Plexiglas wall. The stimulus is dispensed thanks to a Forced Evaporation System (Chappuis et al, 2015, DOI: 10.1021/acs.est.5b00692) at a rate of 0.1 mL/min in a nitrogen flow of 1 L/min, blended in a humid air flow of 9L/min before being carried to the L-shape Teflon tube. An air sucking system (˜150 L/min) is placed above the wall opening, between the two chambers (100 mm Ø), preventing the untreated chamber from being contaminated by the stimulus and limiting the stimulus accumulation in the treated chamber. […] Ten, 20, 30 and 40 minutes after the start of the stimulus injection, the number of mosquitoes that have moved to the untreated chamber is manually counted.

Test [2] relates to Aedes aegypti. As to the kind of experiment: Free flying room assay, spatial repellence with human volunteer. From the text:
The goal of this large-scale test is to assess the propensity of stimulus released in the air to protect a human volunteer by limiting the mosquito presence in a protected space and the number of landing/biting. The protocol used to carry the test is following the guidelines indicated in WHO (2013; ISBN 978 92 4 150502 4).
A group of 50 Aedes aegypti female mosquitoes were introduced in one chamber of 25 m^3 one hour before the test started. The product was applied in the other chamber of 25 m^3 (“treated chamber”) and let evaporate for 30 minutes. The test started when the window separating the two chambers was opened in a tilt-on manner for another 30 minutes. Twenty minutes after the window was opened, a volunteer entered in the “treated chamber” and sat down for 10 minutes, exposing the forearm for the last 3 minutes to determine the probing activity (Protective Efficacy). Then, the connecting window was closed and the number of mosquitoes in each of the chambers was counted (Spatial Repellency). The negative controls were carried out following the same procedure but without the application of the stimulus. Three replicates of each treatment and of the negative control were conducted with three different volunteers.

Test [3] concerns Aedes aegypti. As to the kind of experiment: Arm-in-cage test on human volunteers. The conditions noted are these: arm treated with 20%, three human volunteers. As for the experimental part: The controlling effect, repellence & spatial repellence, according to the present invention is also determined according to an arm in the box method adapted from the WHO Guidelines for efficacy testing of mosquito repellents for human skin (WHO/CDS/NTD/WHOPES/2009.4). The readiness of 100 hungry female mosquitoes A. aegypti to a test substance is assessed by comparing the results of an untreated arm to a treated in when inserted into the cage (40×40×40 cm) for 30 seconds (negative control) three times. Further information is provided in the accompanying examples.
The Arm in the box method was adapted from the WHO Guidelines for efficacy testing of mosquito repellents for human skin (WHO/CDS/NTD/WHOPES/2009.4). The readiness of 100 hungry female mosquitoes A. aegypti to probe is assessed by inserting the untreated arm of human volunteers into the cage (40×40×40cm) for 30 seconds (negative control) in order to determine probing activity. Then, the product is applied onto the skin of the forearm of the human volunteer (1 mL per 600 cm^2) and after 5 minutes, this arm is inserted into the cage and exposed for 3 minutes. The assay take place in temperature (27±2° C.) and humidity (80±10% RH) regulated room on three different human volunteers.

Take `CCCc1cc(OC)c(OC)c(OC)c1` [compound 1975, 1,2,3-trimethoxy-5-propylbenzene]: the “plateau of mosquitoes moved to the untreated chamber” value with Aedes aegypti [1] is ~54%. Further, in the test with Aedes aegypti [2] (in 3 minutes, negative control 60.7±2.5 landings), the “mosquitoes landed on the volunteer” value amounted to 15.7±3.1. Further, in the test with Aedes aegypti [2] (large scale assay, 25 m3 chambers, compound released in the air), the “Spatial Repellence” value is 43.9 ± 9.1%. Further, the Protective efficacy with Aedes aegypti [2] (large scale assay, probing on volunteer forearm, 3 minutes) stood at 74.2 ± 4.4%. Further, the “mosquito entered the treated chamber” value in the test on Aedes aegypti [2] (negative control 82.5±3.7%) amounted to 46.3±7.5%. Moreover, in the test with Aedes aegypti [3], the “reduction of the number of mosquito Aedes aegypti landings” value was 99.4%±0.4%.
